{"source": "patent US12377049B2", "about": "“Fulvestrant pharmaceutical composition, preparation method therefor, and application thereof” (SHANGHAI BOCIMED PHARMACEUTICAL CO., LTD., priority 2019, dated 2025)", "key": {"[1]": {"experiment": "Stability test on the fulvestrant suspensions of Examples 1-3: related substances (EP10.0 method)", "assay_type": "physicochemical", "conditions": "starting material", "description": "The fulvestrant suspensions prepared in Examples 1 and 2 were stored in a refrigerator at 4° C. for 14 days or 10 days, and tested for related substances.\nThe fulvestrant suspension prepared in Example 3 was placed at −20° C., 4° C., 25° C., 40° C. or 60° C., and tested for related substances, the morphology, particle size distribution and crystalline form changes of the fulvestrant solid particles. The test for the related substances was performed according to the EP10.0 method."}, "[2]": {"conditions": "background statement; cited from earlier work"}, "[3]": {"conditions": "background statement; cited from earlier work", "remark": "listed apart in the source"}}}
{"compound": "C[C@]12CC[C@@H]3c4ccc(O)cc4C[C@@H](CCCCCCCCC[S+]([O-])CCCC(F)(F)C(F)(F)F)[C@H]3[C@@H]1CC[C@@H]2O", "note": "(some centres unmarked) [Fulvestrant, 7-(9-(4,4,5,5,5-pentafluoropentylsulfinyl)nonyl)estra-1,3,5(10)-triene-3,17-diol]", "values": [{"measurement": "Main peak, peak area", "setting": "[1]", "result": 99.84, "unit": "%"}, {"measurement": "RRT 0.51, peak area", "setting": "[1]", "result": 0.01, "unit": "%"}, {"measurement": "RRT 0.88, peak area", "setting": "[1]", "result": 0.05, "unit": "%"}, {"measurement": "RRT 1.19, peak area", "setting": "[1]", "result": 0.04, "unit": "%"}, {"measurement": "RRT 2.92, peak area", "setting": "[1]", "result": 0.03, "unit": "%"}, {"measurement": "Total impurities, peak area", "setting": "[1]", "result": 0.05, "unit": "%"}, {"measurement": "water solubility", "setting": "[2]", "result": "very low"}, {"measurement": "oral bioavailability", "setting": "[3]", "result": "low"}]}
